Measured values reported in PubChem BioAssay AID2060891 (Molecular Pharmacology Branch, DTP, NCI, 2025).

Test system: K98450-129-R-PDC complex spheroid growth, percent test/control
Assay: Anticancer human tumor K98450-129-R-PDC patient-derived colon adenocarcinoma cell line growth inhibition [RAS]
Details: for IC50: curve of first compound; for viability, T/C: stronger effect = lower value
Outline: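 Agents were tested in combination matrices in half-log decrements from a top concentration at or near clinical Cmax (10 microM if undetermined). Targets were multi-cell spheroids of tumour lines plus HUVEC and MSC stromal cells.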

[1] = second compound 0.00316 µM, first compound 0.0316 µM
[2] = second compound 0.00316 µM, first compound 0.1 µM
[3] = second compound 0.00316 µM, first compound 0.316 µM
[4] = second compound 0.00316 µM, first compound 1 µM
[5] = second compound 0.00316 µM, first compound 3.16 µM
[6] = second compound 0.00316 µM, first compound 10 µM
[7] = second compound 0.01 µM, first compound 0.0316 µM
[8] = second compound 0.01 µM, first compound 0.1 µM
[9] = second compound 0.01 µM, first compound 0.316 µM
[10] = second compound 0.01 µM, first compound 1 µM
[11] = second compound 0.01 µM, first compound 3.16 µM
[12] = second compound 0.01 µM, first compound 10 µM
[13] = second compound 0.0316 µM, first compound 0.0316 µM
[14] = second compound 0.0316 µM, first compound 0.1 µM
[15] = second compound 0.0316 µM, first compound 0.316 µM
[16] = second compound 0.0316 µM, first compound 1 µM
[17] = second compound 0.0316 µM, first compound 3.16 µM
[18] = second compound 0.0316 µM, first compound 10 µM
[19] = second compound 0.1 µM, first compound 0.0316 µM
[20] = second compound 0.1 µM, first compound 0.1 µM
[21] = second compound 0.1 µM, first compound 0.316 µM
[22] = second compound 0.1 µM, first compound 1 µM
[23] = second compound 0.1 µM, first compound 3.16 µM
[24] = second compound 0.1 µM, first compound 10 µM
[25] = second compound 0.316 µM, first compound 0.0316 µM
[26] = second compound 0.316 µM, first compound 0.1 µM
[27] = second compound 0.316 µM, first compound 0.316 µM
[28] = second compound 0.316 µM, first compound 1 µM
[29] = second compound 0.316 µM, first compound 3.16 µM
[30] = second compound 0.316 µM, first compound 10 µM
[31] = second compound 1 µM, first compound 0.0316 µM
[32] = second compound 1 µM, first compound 0.1 µM
[33] = second compound 1 µM, first compound 0.316 µM
[34] = second compound 1 µM, first compound 1 µM
[35] = second compound 1 µM, first compound 3.16 µM
[36] = second compound 1 µM, first compound 10 µM
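Note: spheroids exposed to agents for seven days before the viability readout.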
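Throughout, for viability, T/C: luminescence used as a proxy for viable cell amount.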

## Cc1nc(N2CCC3(CC2)COC(C)C3N)c(CO)nc1Sc1ccnc(N)c1Cl (stereo unspecified) + C=CC(=O)N1CCN(c2nc(OCC3CCCN3C)nc3c(F)c(-c4nc(N)cc(C)c4C(F)(F)F)c(Cl)cc23)C(C)C1
Second compound 0.00316 µM
  IC50: 569 nM
Second compound 0.01 µM
  IC50: 235 nM
Second compound 0.0316 µM
  IC50: 82.4 nM
Second compound 0.1 µM
  IC50: < 31.6 nM
Second compound 0.316 µM
  IC50: < 31.6 nM
Second compound 1 µM
  IC50: < 31.6 nM
[1]
  viability, T/C: 88.3%
[2]
  viability, T/C: 87.9%
[3]
  viability, T/C: 66.2%
[4]
  viability, T/C: 34.3%
[5]
  viability, T/C: 10.5%
[6]
  viability, T/C: 7.72%
[7]
  viability, T/C: 82.9%
[8]
  viability, T/C: 69.6%
[9]
  viability, T/C: 44.6%
[10]
  viability, T/C: 11.6%
[11]
  viability, T/C: 9.41%
[12]
  viability, T/C: 7.24%
[13]
  viability, T/C: 61.2%
[14]
  viability, T/C: 47.6%
[15]
  viability, T/C: 20.9%
[16]
  viability, T/C: 9.03%
[17]
  viability, T/C: 9.29%
[18]
  viability, T/C: 7.4%
[19]
  viability, T/C: 40.2%
[20]
  viability, T/C: 20.5%
[21]
  viability, T/C: 11%
[22]
  viability, T/C: 8.4%
[23]
  viability, T/C: 8.28%
[24]
  viability, T/C: 7.55%
[25]
  viability, T/C: 23.4%
[26]
  viability, T/C: 14.7%
[27]
  viability, T/C: 10.1%
[28]
  viability, T/C: 9.11%
[29]
  viability, T/C: 8.21%
[30]
  viability, T/C: 7.31%
[31]
  viability, T/C: 21.6%
[32]
  viability, T/C: 15.2%
[33]
  viability, T/C: 10.9%
[34]
  viability, T/C: 8.92%
[35]
  viability, T/C: 8.81%
[36]
  viability, T/C: 7.65%

## NC1c2ccccc2OC12CCN(c1cnc3c(N4CCCc5ncccc54)n[nH]c3n1)CC2 (stereo unspecified) + C=CC(=O)N1CCN(c2nc(OCC3CCCN3C)nc3c(F)c(-c4nc(N)cc(C)c4C(F)(F)F)c(Cl)cc23)C(C)C1
Second compound 0.00316 µM
  IC50: 58.6 nM
Second compound 0.01 µM
  IC50: < 31.6 nM
Second compound 0.0316 µM
  IC50: < 31.6 nM
Second compound 0.1 µM
  IC50: < 31.6 nM
Second compound 0.316 µM
  IC50: < 31.6 nM
Second compound 1 µM
  IC50: < 31.6 nM
[1]
  viability, T/C: 71.8%
[2]
  viability, T/C: 31.1%
[3]
  viability, T/C: 8.4%
[4]
  viability, T/C: 7.7%
[5]
  viability, T/C: 6.2%
[6]
  viability, T/C: 4.82%
[7]
  viability, T/C: 48.1%
[8]
  viability, T/C: 13%
[9]
  viability, T/C: 7.99%
[10]
  viability, T/C: 7.31%
[11]
  viability, T/C: 6.81%
[12]
  viability, T/C: 4.84%
[13]
  viability, T/C: 16.9%
[14]
  viability, T/C: 10.2%
[15]
  viability, T/C: 8.19%
[16]
  viability, T/C: 7.23%
[17]
  viability, T/C: 5.99%
[18]
  viability, T/C: 4.9%
[19]
  viability, T/C: 12.3%
[20]
  viability, T/C: 8.86%
[21]
  viability, T/C: 8.05%
[22]
  viability, T/C: 6.93%
[23]
  viability, T/C: 6.33%
[24]
  viability, T/C: 4.82%
[25]
  viability, T/C: 10.9%
[26]
  viability, T/C: 8.75%
[27]
  viability, T/C: 8.02%
[28]
  viability, T/C: 6.49%
[29]
  viability, T/C: 6.35%
[30]
  viability, T/C: 5.02%
[31]
  viability, T/C: 10.8%
[32]
  viability, T/C: 9.4%
[33]
  viability, T/C: 8.01%
[34]
  viability, T/C: 6.8%
[35]
  viability, T/C: 6.75%
[36]
  viability, T/C: 5.01%

## Nc1ccn(C2OC(CO)C(O)C2(F)F)c(=O)n1 (stereo unspecified) + C=CC(=O)N1CCN(c2nc(OCC3CCCN3C)nc3c(F)c(-c4nc(N)cc(C)c4C(F)(F)F)c(Cl)cc23)C(C)C1
Second compound 0.00316 µM
  IC50: 57.9 nM
Second compound 0.01 µM
  IC50: 33.7 nM
Second compound 0.0316 µM
  IC50: 15.3 nM
Second compound 0.1 µM
  IC50: 5.71 nM
Second compound 0.316 µM
  IC50: < 3.16 nM
Second compound 1 µM
  IC50: < 3.16 nM
Second compound 0.00316 µM, first compound 0.00316 µM
  viability, T/C: 91.3%
Second compound 0.00316 µM, first compound 0.01 µM
  viability, T/C: 86.3%
[1]
  viability, T/C: 59.6%
[2]
  viability, T/C: 40.5%
[3]
  viability, T/C: 31.7%
[4]
  viability, T/C: 25.8%
Second compound 0.01 µM, first compound 0.00316 µM
  viability, T/C: 91%
Second compound 0.01 µM, first compound 0.01 µM
  viability, T/C: 76.8%
[7]
  viability, T/C: 49.1%
[8]
  viability, T/C: 34.8%
[9]
  viability, T/C: 28.5%
[10]
  viability, T/C: 22.8%
Second compound 0.0316 µM, first compound 0.00316 µM
  viability, T/C: 68.4%
Second compound 0.0316 µM, first compound 0.01 µM
  viability, T/C: 59.5%
[13]
  viability, T/C: 34.1%
[14]
  viability, T/C: 22.6%
[15]
  viability, T/C: 18.5%
[16]
  viability, T/C: 16.3%
Second compound 0.1 µM, first compound 0.00316 µM
  viability, T/C: 57.5%
Second compound 0.1 µM, first compound 0.01 µM
  viability, T/C: 43%
[19]
  viability, T/C: 24.4%
[20]
  viability, T/C: 17.7%
[21]
  viability, T/C: 15.2%
[22]
  viability, T/C: 14.7%
Second compound 0.316 µM, first compound 0.00316 µM
  viability, T/C: 41.5%
Second compound 0.316 µM, first compound 0.01 µM
  viability, T/C: 38.6%
[25]
  viability, T/C: 21.8%
[26]
  viability, T/C: 16.4%
[27]
  viability, T/C: 14.2%
[28]
  viability, T/C: 12.8%
Second compound 1 µM, first compound 0.00316 µM
  viability, T/C: 36.2%
Second compound 1 µM, first compound 0.01 µM
  viability, T/C: 25.1%
[31]
  viability, T/C: 18.8%
[32]
  viability, T/C: 16.9%
[33]
  viability, T/C: 14.3%
[34]
  viability, T/C: 14.4%
